# Values of other authors as cited in article PMC8232766, “Chemical Composition and Immunomodulatory Activity of Essential Oils from Rhododendron albiflorum” (Molecules, 2021).
# Legend:
# human neutrophils [1] = test system: human neutrophils; set-up: method as in PMID 27586050, PMID 25959257; conditions: direct effect; previous studies; cited from earlier work
# human neutrophils [2] = conditions: cited from earlier work; for Inhibition of agonist-induced neutrophil Ca2+ mobilization: previous studies; for Inhibition of agonist-induced Ca2+ mobilization in human neutrophils: found previously
SMILES,Activation of neutrophil Ca2+ mobilization (human neutrophils [1]),Inhibition of agonist-induced neutrophil Ca2+ mobilization (human neutrophils [2]),Inhibition of agonist-induced Ca2+ mobilization in human neutrophils (human neutrophils [2])
C=C1CCC2(C(C)C)CC12 (centres unmarked) [sabinene],no activating effects,no inhibitory effect,
C=C1CC/C=C(\C)CC[C@@H]2[C@@H]1CC2(C)C [β-caryophyllene],,,inhibited
C=CC(=C)CCC=C(C)C [myrcene],no activating effects,no inhibitory effect,
CC1=CCC(=C(C)C)CC1 [terpinolene],no activating effects,no inhibitory effect,
C/C1=C\CC/C(C)=C/CC(C)(C)/C=C/C1 [α-humulene],,,inhibited
C=C1C2CCC(C2)C1(C)C (centres unmarked) [camphene],,no inhibitory effect,
CC1=CCC(C(C)C)=CC1 [γ-terpinene],no activating effects,no inhibitory effect,
C=CC(C)(O)CCC=C(C)C (centres unmarked) [linalool],no activating effects,no inhibitory effect,
CC1=CCC(O)(C(C)C)CC1 (centres unmarked) [terpinen-4-ol],no activating effects,no inhibitory effect,
C=C(C)[C@H]1CC=C(C)CC1 [limonene],no activating effects,no inhibitory effect,
CC1=CCC2CC1C2(C)C (stereo not drawn) [α-pinene],no activating effects,no inhibitory effect,
C=C1/C=C/[C@H](C(C)C)CC/C(C)=C/CC1 [germacrene D],,,inhibited
Cc1ccc(C(C)C)cc1 [p-cymene],no activating effects,no inhibitory effect,
C=C1CCC2CC1C2(C)C (stereo not drawn) [β-pinene],no activating effects,no inhibitory effect,
CC1=CC=C(C(C)C)CC1 [α-terpinene],no activating effects,no inhibitory effect,
